According to patent US10798941B2, “Microbiocidal oxadiazole derivatives” (SYNGENTA PARTICIPATIONS AG, priority 2016, dated 2020):

Tests used:
[1] = test system: Glomerella Lagenarium (Colletotrichum Lagenarium); experiment: Glomerella lagenarium (Colletotrichum lagenarium) liquid culture / cucumber / preventative (anthracnose); assay type: cell-based; details: Colletotrichum orbiculare; 20 ppm in the applied formulation; liquid culture in PDB, 24° C., inhibition of growth measured photometrically 3 to 4 days after application, vs untreated; read-out: disease control
How it was run: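 Conidia from cryogenic storage were mixed into potato dextrose broth. This was added to compound diluted from DMSO into 0.025% Tween20, tested at 20 ppm. Plates were incubated in the dark at 24 °C and 96% relative humidity, and growth was read photometrically after 2–7 days as % activity versus untreated check.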

[2] = test system: Puccinia recondita f. Sp. Tritici; experiment: Puccinia recondita f. sp. tritici / wheat / leaf disc curative (brown rust); assay type: in vivo; details: foliar, 144 h, 200 ppm in the applied formulation, wheat leaf segments cv. Kanzler, applied 1 day after inoculation, assessed 6 to 8 days after application, vs untreated, read-out: disease control
Experimental: (§1) Leaf disks or leaf segments of various plant species are cut from plants grown in a greenhouse. The cut leaf disks or segments are placed in multiwell plates (24-well format) onto water agar. The leaf disks are sprayed with a test solution before (preventative) or after (curative) inoculation. Compounds to be tested are prepared as DMSO solutions (max. 10 mg/ml) which are diluted to the appropriate concentration with 0.025% Tween20 just before spraying. The inoculated leaf disks or segments are incubated under defined conditions (temperature, relative humidity, light, etc.) according to the respective test system. A single evaluation of disease level is carried out 3 to 14 days after inoculation, depending on the pathosystem. Percent disease control relative to the untreated check leaf disks or segments is then calculated.
Wheat leaf segments cv. Kanzler are placed on agar in multiwell plates (24-well format). The leaf segments are then inoculated with a spore suspension of the fungus. Plates were stored in darkness at 19° C. and 75% relative humidity. The formulated test compound diluted in water was applied 1 day after inoculation. The leaf segments were incubated at 19° C. and 75% relative humidity under a light regime of 12 hours light/12 hours darkness in a climate cabinet and the activity of a compound was assessed as percent disease control compared to untreated when an appropriate level of disease damage appears in untreated check leaf segments (6 to 8 days after application).
(§2) The following compounds at 200 ppm in the applied formulation give at least 80% disease control in this test when compared to untreated control leaf disks under the same conditions, which show extensive disease development.

[3] = test system: Puccinia recondita f. Sp. Tritici; experiment: Puccinia recondita f. sp. tritici / wheat / leaf disc preventative (brown rust); assay type: in vivo; details: foliar, 168 h, 200 ppm in the applied formulation, wheat leaf segments cv. Kanzler, preventative, inoculated 1 day after application, assessed 7 to 9 days after application, vs untreated, read-out: disease control
Experimental: as §1
Wheat leaf segments cv. Kanzler were placed on agar in multiwell plates (24-well format) and sprayed with the formulated test compound diluted in water. The leaf disks were inoculated with a spore suspension of the fungus 1 day after application. The inoculated leaf segments were incubated at 19° C. and 75% relative humidity (rh) under a light regime of 12 hours light/12 hours darkness in a climate cabinet and the activity of a compound was assessed as percent disease control compared to untreated when an appropriate level of disease damage appears in untreated check leaf segments (7 to 9 days after application).
as §2

N#Cc1cnn(Cc2ccc(-c3noc(C(F)(F)F)n3)cc2)c1 [Compound 1.76, 1-[[4-[5-(trifluoromethyl)-1,2,4-oxadiazol-3-yl]phenyl]methyl]pyrazole-4-carbonitrile]
≥ 80%: inhibition of growth at 20 ppm [1] | pest or weed control at 200 ppm [2] | pest or weed control at 200 ppm [3]

CCOC(=O)c1c(C)ncn1Cc1ccc(-c2noc(C(F)(F)F)n2)cc1 [Compound 1.80, ethyl 5-methyl-3-[[4-[5-(trifluoromethyl)-1,2,4-oxadiazol-3-yl]phenyl]methyl]imidazole-4-carboxylate]
≥ 80%: inhibition of growth at 20 ppm [1] | pest or weed control at 200 ppm [2] | pest or weed control at 200 ppm [3]

Cn1c(=O)c2c(ncn2Cc2ccc(-c3noc(C(F)(F)F)n3)cc2)n(C)c1=O [Compound 1.81, 1,3-dimethyl-7-[[4-[5-(trifluoromethyl)-1,2,4-oxadiazol-3-yl]phenyl]methyl]purine-2,6-dione]
≥ 80%: inhibition of growth at 20 ppm [1] | pest or weed control at 200 ppm [2] | pest or weed control at 200 ppm [3]

FC(F)(F)c1nc(-c2ccc(Cn3cnc(-c4ccccc4)c3)cc2)no1 [Compound 1.82, 3-[4-[(4-phenylimidazol-1-yl)methyl]phenyl]-5-(trifluoromethyl)-1,2,4-oxadiazole]
≥ 80%: inhibition of growth at 20 ppm [1] | pest or weed control at 200 ppm [2] | pest or weed control at 200 ppm [3]

Cc1cn(Cc2ccc(-c3noc(C(F)(F)F)n3)cc2)cn1 [Compound 1.83, 3-[4-[(4-methylimidazol-1-yl)methyl]phenyl]-5-(trifluoromethyl)-1,2,4-oxadiazole]
≥ 80%: inhibition of growth at 20 ppm [1] | pest or weed control at 200 ppm [2] | pest or weed control at 200 ppm [3]

COC(=O)c1cncn1Cc1ccc(-c2noc(C(F)(F)F)n2)cc1 [Compound 1.89, methyl 3-[[4-[5-(trifluoromethyl)-1,2,4-oxadiazol-3-yl]phenyl]methyl]imidazole-4-carboxylate]
≥ 80%: inhibition of growth at 20 ppm [1] | pest or weed control at 200 ppm [2] | pest or weed control at 200 ppm [3]

COC(=O)c1ncn(Cc2ccc(-c3noc(C(F)(F)F)n3)cc2F)c1C(=O)OC [Compound 1.118, dimethyl 1-[[2-fluoro-4-[5-(trifluoromethyl)-1,2,4-oxadiazol-3-yl]phenyl]methyl]imidazole-4,5-dicarboxylate]
≥ 80%: inhibition of growth at 20 ppm [1] | pest or weed control at 200 ppm [2] | pest or weed control at 200 ppm [3]

N#Cc1ncn(Cc2ccc(-c3noc(C(F)(F)F)n3)cc2F)c1C#N [Compound 1.119, 1-[[2-fluoro-4-[5-(trifluoromethyl)-1,2,4-oxadiazol-3-yl]phenyl]methyl]imidazole-4,5-dicarbonitrile]
≥ 80%: inhibition of growth at 20 ppm [1] | pest or weed control at 200 ppm [2] | pest or weed control at 200 ppm [3]

Fc1cc(-c2noc(C(F)(F)F)n2)ccc1Cn1cnc(Br)c1 [Compound 1.120, 3-[4-[(4-bromoimidazol-1-yl)methyl]-3-fluoro-phenyl]-5-(trifluoromethyl)-1,2,4-oxadiazole]
≥ 80%: inhibition of growth at 20 ppm [1] | pest or weed control at 200 ppm [2] | pest or weed control at 200 ppm [3]

Fc1cc(-c2noc(C(F)(F)F)n2)ccc1Cn1cnc(Cl)c1Cl [Compound 1.121, 3-[4-[(4,5-dichloroimidazol-1-yl)methyl]-3-fluoro-phenyl]-5-(trifluoromethyl)-1,2,4-oxadiazole]
≥ 80%: inhibition of growth at 20 ppm [1] | pest or weed control at 200 ppm [2] | pest or weed control at 200 ppm [3]
